Laboratory results published in US20230338396A1, “CANNABIDIOL AS A T[…] FOR COVID-19” (AUGUSTA UNIVERSITY RESEARCH INSTITUTE, INC., priority 2020, published 2023).
Entries after “also recorded” stand apart in the source; their conditions may differ.

Experiments:
Poly(I:C)-induced ARDS [1] = format: in vivo, C57BL/6 mice; conditions: CBD 5 mg/kg intraperitoneal
Poly(I:C)-induced ARDS [2] = experiment: Poly(I:C)-induced ARDS in mice, apelin modulation by CBD (Example 2); format: in vivo, C57Bl/6 mice; conditions: CBD 5 mg/kg intraperitoneal, 3 doses, after Poly(I:C)
Acute Lung Injury (ALI) = experiment: Inhaled CBD in Acute Lung Injury (ALI)/ARDS murine model with Poly(I:C); format: in vivo
T cells = experiment: CBD inhalers in healthy young and older subjects, T cells; format: in vivo; conditions: CBD inhaler, 20 mg of CBD for 120 min
[3] = inhaled CBD compared to CBD injection
[4] = inhaled CBD, Poly(I:C)-treated mice

SMILES: C=C(C)[C@@H]1CCC(C)=C[C@H]1c1c(O)cc(CCCCC)cc1O [CBD, cannabidiol]
- expression of IL-6 in lung (immunohistochemistry) (Poly(I:C)-induced ARDS [1]; 3 doses, after Poly(I:C)): reduced the expression of IL-6
- frequencies of neutrophils in the lung (immunohistochemistry) (Poly(I:C)-induced ARDS [1]; 3 doses, after Poly(I:C)): lowered the frequencies of neutrophils in the lung
- inflammatory indices overall (flow cytometry of blood and lung) (Poly(I:C)-induced ARDS [1]; 3 doses, after Poly(I:C)): reversed all these inflammatory indices and partially re-established homeostasis
- lung structural damage and symptoms (inflammatory infiltrate, fibrosis, hypertrophy, pulmonary edema; H&E histology) (Poly(I:C)-induced ARDS [1]; 3 doses, after Poly(I:C)): improves lung structure and function; also recorded: totally or partially reversed and returned to the level and condition of the normal
- level of proinflammatory cytokines in blood (IL-6, IFNγ, TNFα) (Poly(I:C)-induced ARDS [1]; blood): reducing the number of neutrophils and monocytes as well as the level of proinflammatory cytokines significantly
- number of neutrophils and monocytes in blood (flow cytometry) (Poly(I:C)-induced ARDS [1]; blood): reducing the number of neutrophils and monocytes
- lymphocyte frequencies in blood (flow cytometry) (Poly(I:C)-induced ARDS [1]; blood, p<0.01): enhanced the rate of lymphocyte frequencies markedly
- number of infiltrating neutrophils and macrophages in lung (flow cytometry) (Poly(I:C)-induced ARDS [1]; lung): downregulated the number of infiltrating neutrophils and macrophages markedly
- level of cytokines in lung (flow cytometry) (Poly(I:C)-induced ARDS [1]; lung, p<0.05): reduced the level of cytokines significantly
- T cells in whole blood (flow cytometry) (Poly(I:C)-induced ARDS [2]; blood): returned decreased T cells and increased neutrophils towards the normal level
- apelin expression in blood (flow cytometry) (Poly(I:C)-induced ARDS [2]; blood): normalized the expression level of apelin in the blood; also recorded: enhanced expression of apelin in the blood
- neutrophils in whole blood (flow cytometry) (Poly(I:C)-induced ARDS [2]; blood): returned decreased T cells and increased neutrophils towards the normal level
- apelin expression in lung tissue (immunofluorescence) (Poly(I:C)-induced ARDS [2]; lung): normalized the apelin expression in the lung tissues; also recorded: increased apelin expression towards control levels
- pathological features of lung (histology, Masson's trichrome) (Poly(I:C)-induced ARDS [2]; lung): completely or partially abolished
- IL-6 production in lung tissue (Acute Lung Injury (ALI); [3]): further down regulate IL-6 production
- activated infiltrating leukocytes (Acute Lung Injury (ALI); [3]): decreased activated infiltrating leukocytes
- destruction of lung (H&E) (Acute Lung Injury (ALI); [4]): able to prevent further destruction of lung
- frequencies of T cells (lymphopenia) in peripheral blood and lung tissue (Acute Lung Injury (ALI); [4]): able to reinstate the frequencies of T cells
- effects on T cells frequencies or functionality (T cells): no negative effects
